Read-outs that look alike come from different tables or passages of the source.
Assays:
[1] = cited from earlier work
[2] = tested on: AMPA receptor; conditions: animal spinal neurons; cited from earlier work
[3] = cited from earlier work; remark: listed apart in the source
[4] = in vivo; cited from earlier work
[5] = Effect of naltrexone on alcohol stimulation (BAES); format: in vivo, human; conditions: calculated from Ray et al. (Arch Gen Psychiatry 2007)
Method: No human studies have examined perampanel in psychiatric/substance-using populations. We calculated an effect size for naltrexone based on Ray et al. (Arch Gen Psychiatry. 2007; 64(9):1069-77), for the effect of naltrexone on stimulation (BAES) and will extrapolate this effect to perampanel. Based on this calculated effect size (d) of 0.45 (e.g. a moderate effect size), we should be able to show a significant difference between perampanel and placebo groups using a two-sided, […] t-test, with alpha=0.05 and power (1-Beta) of 0.80 with n=21 subjects in each experimental group (total N=42). We will recruit and enter N=50 subjects, in order to complete at least 42.

[6] = tested on: AMPA receptor; conditions: in vitro, rat hippocampal slices; cited from earlier work
[7] = cited from earlier work; remark: listed apart in the source
[8] = biological target: CYP3A4 (Homo sapiens, UniProt P08684); conditions: cited from earlier work
Chain of CYP3A4 (P08684 whole entry): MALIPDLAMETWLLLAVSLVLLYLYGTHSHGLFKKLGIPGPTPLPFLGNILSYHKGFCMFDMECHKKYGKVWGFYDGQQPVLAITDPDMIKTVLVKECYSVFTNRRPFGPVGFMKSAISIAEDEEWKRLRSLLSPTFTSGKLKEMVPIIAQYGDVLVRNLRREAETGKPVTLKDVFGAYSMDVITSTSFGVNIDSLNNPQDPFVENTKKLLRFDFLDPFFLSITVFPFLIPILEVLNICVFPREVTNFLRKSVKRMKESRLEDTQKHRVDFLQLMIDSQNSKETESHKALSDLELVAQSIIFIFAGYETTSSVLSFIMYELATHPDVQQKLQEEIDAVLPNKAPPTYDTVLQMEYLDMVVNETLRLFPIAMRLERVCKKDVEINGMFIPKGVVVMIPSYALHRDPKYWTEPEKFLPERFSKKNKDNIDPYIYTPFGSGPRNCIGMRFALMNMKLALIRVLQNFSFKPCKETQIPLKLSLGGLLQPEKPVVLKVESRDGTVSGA

[9] = in vivo; cited from earlier work; remark: listed apart in the source

Compound	maximum tolerated single oral dose ([1]; healthy human subjects, single oral dose) [mg]	medication related adverse events/side effects ([1]; human, in vivo)	selectivity of action on the AMPA receptor [2]	elimination half-life T1/2 ([3]; healthy volunteers)	absorption in the gastrointestinal system ([3]; orally active)	time to peak plasma concentration (Tmax) ([3]; post-ingestion)	blood-brain-barrier penetration [4]	effect size (d) on stimulation (BAES) [5]	selectivity of action on the AMPA receptor [6]	medication related adverse events/side effects ([7]; chronic dosing in epilepsy trials)	tolerability ([7]; human subjects, doses of 8 mg or 12 mg daily)	metabolising enzyme [8]	bioavailability [9]	pharmacokinetic linearity [9]
CC(=O)N1N=C(c2ccc(N)cc2)c2cc3c(cc2C[C@H]1C)OCO3 [talampanel]	100	dizziness, sedation, and ataxia	selective action	approximately 4 hours	easily absorbed	approximately 2 hours	good blood-brain-barrier penetration							
O=C1CC[C@@]2(O)[C@H]3Cc4ccc(O)c5c4[C@@]2(CCN3CC2CC2)[C@H]1O5 [naltrexone]								0.45						
N#Cc1ccccc1-c1cc(-c2ccccn2)cn(-c2ccccc2)c1=O [perampanel]							effectively penetrates the blood-brain-barrier		selective action	dizziness, somnolence, irritability, headache, fall, and ataxia	well tolerated	primarily metabolized by CYP3A4	about 100%	linear pharmacokinetics
